Test results published in US12715896B2 (priority 2020, dated 2026).
Non-standard residues stand in square brackets, D forms with d. Residues, ends and D or L forms follow the SMILES beside them. ξ: configuration not given here. *: point of attachment. Nle = CCCC[C@H](N)C(=O)O; Nva = CCC[C@H](N)C(=O)O; Cbz = O=C(OCc1ccccc1)*; ξI = CCC(C)C(N)C(=O)O; OtBu = CC(C)(C)O*

Key:
EV-A71 2A protease = EV-A71 2A protease (Human enterovirus 71, UniProt Q66478); experiment: biochemical; details: for IC50: read-out: EVA71 2A IC50
EV-A71 3C protease = EV-A71 3C protease (Human enterovirus 71, UniProt Q66478); experiment: biochemical
SARS-CoV-2 = experiment: Antiviral CPE assay against SARS-CoV-2; assay type: cell-based; details: Severe acute respiratory syndrome coronavirus 2
[1] = tested on: A/California/07/2009 (H1N1); experiment: Counter screening against influenza virus in plaque assay; assay type: cell-based; details: read-out: Antiviral activity against A/California/07/2009 (H1N1)
in vitro [2] = experiment: in vitro
SARS-CoV = experiment: microbe, parasite or virus in culture; details: Severe acute respiratory syndrome coronavirus, read-out: EC50 against SARS-CoV
MERS-CoV = experiment: microbe, parasite or virus in culture; details: Middle East respiratory syndrome-related coronavirus, read-out: EC50 against MERS-CoV
[3] = Cytotoxicity CPE assay (neutral red), MDCK; assay type: cell-based; details: dog, MDCK cells, mean ± S.E.
[4] = Cytotoxicity CPE assay (neutral red), Vero; assay type: cell-based; details: African green monkey, Vero cells, mean ± S.E.
[5] = Cytotoxicity CPE assay (neutral red), HCT-8; assay type: cell-based; details: human, HCT-8 cells, mean ± S.E.
[6] = Cytotoxicity CPE assay (neutral red), A549; assay type: cell-based; details: human, A549 cells, mean ± S.E.
[7] = Cytotoxicity CPE assay (neutral red), Caco-2; assay type: cell-based; details: human, Caco-2 cells, mean ± S.E.
[8] = Cytotoxicity CPE assay (neutral red), BEAS2B; assay type: cell-based; details: human, BEAS2B cells, mean ± S.E.
[9] = Antiviral CPE assay against SARS-CoV-2; assay type: cell-based
in vitro [10] = experiment: in vitro; remark: listed apart in the source
[11] = Cellular cytotoxicity in multiple cell lines; details: human, dog, African green monkey
SARS-CoV 3CL^pro = SARS-CoV 3CL^pro (Severe acute respiratory syndrome coronavirus, UniProt P0C6X7); details: read-out: IC50 against the SARS-CoV 3CL^pro; cited from earlier work

EV-A71 3C protease, sequence (Q66478 1549-1731): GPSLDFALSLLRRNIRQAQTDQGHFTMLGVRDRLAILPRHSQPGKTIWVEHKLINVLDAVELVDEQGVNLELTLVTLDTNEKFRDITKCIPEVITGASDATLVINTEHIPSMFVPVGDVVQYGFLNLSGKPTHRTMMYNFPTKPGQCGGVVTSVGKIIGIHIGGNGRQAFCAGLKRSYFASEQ
EV-A71 2A protease, sequence (Q66478 863-1012): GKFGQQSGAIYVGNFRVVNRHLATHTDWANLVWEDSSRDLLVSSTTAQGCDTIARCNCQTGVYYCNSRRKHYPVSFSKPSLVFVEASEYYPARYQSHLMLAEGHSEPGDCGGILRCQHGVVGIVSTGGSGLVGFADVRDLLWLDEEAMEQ

SMILES | IC50 (EV-A71 2A protease) [µM] | IC50 (EV-A71 3C protease) [µM] | EC50 (SARS-CoV-2) [µM] | EC50 [1] [µM] | CC50 (in vitro [2]) [µM] | EC50 (SARS-CoV) [µM] | EC50 (MERS-CoV) [µM] | other results
CC(C)(C)NC(=O)N[C@H](C(=O)N1C[C@H]2[C@@H]([C@H]1C(=O)NC(CC1CCC1)C(=O)C(N)=O)C2(C)C)C(C)(C)C (some centres unmarked) [Boceprevir (28), Boceprevir] | > 20 | > 20 | 1.9 | > 20 | > 47 | > 47 | > 100 | –
CCCC[C@@H](C=O)NC(=O)[C@H](CC(C)C)NC(=O)[C@H](CC(C)C)NC(C)=O [Calpain inhibitor 1 (ALLN) (59), Calpain inhibitor 1] (Ac-Leu-Leu-[Nle]-aldehyde) | > 20 | > 20 | – | – | – | – | – | –
CSCC[C@@H](C=O)NC(=O)[C@H](CC(C)C)NC(=O)[C@H](CC(C)C)NC(C)=O [Calpain inhibitor II (61), Calpain inhibitor II] (Ac-Leu-Leu-Met-aldehyde) | > 20 | > 20 | 1.2 | > 20 | > 100 | 3.6 | 14 | CC50 at 48 h [3]: > 100 µM; CC50 at 48 h [4]: > 100 µM; CC50 at 48 h [5]: > 100 µM; CC50 at 48 h [6]: > 100 µM; CC50 at 48 h [7]: > 100 µM; CC50 at 48 h [8]: > 100 µM; CC50 [9]: > 100 µM; CC50 (in vitro [10]): > 100 µM; CC50 at 48 h [11]: > 100 µM
CC(C)C[C@@H](C=O)NC(=O)[C@@H](NS(=O)(=O)c1ccc(F)cc1)C(C)C [Calpain inhibitor VI (58), Calpain inhibitor VI] | – | > 20 | – | – | – | – | – | –
CCC[C@H](NC(=O)[C@H](CC(C)C)NC(=O)OCc1ccccc1)C(=O)C(=O)NCc1ccccn1 [Calpain inhibitor XII (62), Calpain inhibitor XII] | > 20 | > 20 | 0.3 | > 20 | – | 7.4 | 7.9 | CC50 at 48 h [3]: 60.4 ± 2.28 µM; CC50 at 48 h [4]: > 100 µM; CC50 at 48 h [5]: 73.3 ± 11.8 µM; CC50 at 48 h [6]: > 100 µM; CC50 at 48 h [7]: 82.02 ± 0.37 µM; CC50 at 48 h [8]: 78.9 ± 13.7 µM; CC50 [9]: > 50 µM; CC50 at 48 h [11]: > 50 µM
CCCC[C@@H](C=O)NC(=O)[C@H](CC(C)C)NC(=O)OCc1ccccc1 [Calpeptin (56), Calpeptin] | > 20 | > 20 | – | – | – | – | – | –
CC(C)C[C@H](NC(=O)OCc1ccccc1)C(=O)N[C@@H](C[C@@H]1CCNC1=O)C(O)S(=O)(=O)[O-].[Na+] (some centres unmarked) [GC-376 (64), GC-376] | > 20 | 0.136 ± 0.025 | 1.9 | > 20 | > 100 | […] | […] | activity against the EV-A71 2A protease (EV-A71 2A protease): not active; inhibition against the EV-A71 3C protease (EV-A71 3C protease): potent inhibition; CC50 at 48 h [3]: > 100 µM; CC50 at 48 h [4]: > 100 µM; CC50 at 48 h [5]: > 100 µM; CC50 at 48 h [6]: > 100 µM; CC50 at 48 h [7]: > 100 µM; CC50 at 48 h [8]: > 100 µM; CC50 [9]: > 100 µM; CC50 (in vitro [10]): > 100 µM; CC50 at 48 h [11]: > 100 µM
CCC[C@@H](C=O)NC(=O)[C@H](CC(C)C)NC(=O)[C@H](CC(C)C)NC(=O)OCc1ccccc1 [MG-115 (60), MG-115] (Cbz-Leu-Leu-[Nva]-aldehyde) | > 20 | > 20 | – | – | – | – | – | –
CC(C)C[C@@H](C=O)NC(=O)[C@H](CC(C)C)NC(=O)[C@H](CC(C)C)NC(=O)OCc1ccccc1 [MG-132 (43), MG-132] (Cbz-Leu-Leu-Leu-aldehyde) | > 20 | > 20 | 0.87 | – | > 0.7 | > 0.7 | > 10 | –
CCCC[C@H](NC(=O)[C@@H]1[C@@H]2[C@H](CN1C(=O)[C@@H](NC(=O)NC1(CS(=O)(=O)C(C)(C)C)CCCCC1)C(C)(C)C)C2(C)C)C(=O)C(=O)NC1CC1 [Narlaprevir (29), Narlaprevir] | > 20 | > 20 | – | – | – | – | – | –
CCC(C)C(NC(=O)OCc1ccccc1)C(=O)N[C@@H](CCC(=O)OC(C)(C)C)C(=O)N[C@@H](C)C(=O)N[C@H](C=O)CC(C)C (some centres unmarked) [PSI (63), PSI] (Cbz-[ξI]E(OtBu)AL-aldehyde) | 1.22 | 13.7 ± 3.86 | – | – | – | – | – | –
CCOC(=O)/C=C/[C@H](C[C@@H]1CCNC1=O)NC(=O)[C@@H](CC(=O)[C@@H](NC(=O)c1cc(C)on1)C(C)C)Cc1ccc(F)cc1 [Rupintrivir (65), Rupintrivir] | > 20 | 0.042 ± 0.014 | – | – | – | – | – | activity against the EV-A71 2A protease (EV-A71 2A protease): not active; inhibition against the EV-A71 3C protease (EV-A71 3C protease): potent inhibition; IC50 (SARS-CoV 3CL^pro): > 100 µM
